In patent publication US10584156B2, “Insulin analogues with a glucose-regulated conformational switch” (CASE WESTERN RESERVE UNIVERSITY, priority 2015, dated 2020):

Assay: EDTA cobalt-sequestration assay of R6 insulin hexamer disassembly, with or without glucose
Format: physicochemical
Settings: 25 mM glucose vs none, pH 7.4, large excess of EDTA, phenol-stabilized Co^2+ R6 hexamer
From the text: Glucose-responsive rates of disassembly were investigated using a spectroscopy assay in which the visible absorption spectrum of a cobalt (Co^2+)-substituted insulin hexamer was obtained in the presence of phenol as an R6 hexamer.
This band arises front the unfilled d-shell electrons of the cobalt ion and is a specific signature of a tetrahedral coordination environment. Addition of a large excess of the chelating agent ethylene-diamine-tetra-acetic acid (EDTA) leads to progressive sequestration of the metal ion (in a colorless octahedral complex) and so provides a rapid and convenient probe of the kinetics of hexamer disassembly.
To this end, insulin analogues were made 0.6 mM in a buffer containing 50 mM Tris-HCl (pH 7.4), 50 mM phenol, 0.2 mM CoCl2, and 2 mM NaSCN in the absence of glucose or in the presence of 25 mM glucose. The sample pH was in each case 7.4, and samples were incubated overnight at room temperature prior to the studies to ensure that a conformational equilibrium was reached. Spectra (400-750 nm) were obtained to monitor tetrahedral Co^2+ coordination with its signature d-d absorption band at or near 574 nm. To determine the rate of Co^2+ release from the hexamers, metal-ion sequestration was initiated at 33° C. […] Attenuation of the 574-nm absorption band was monitored on a time scale of seconds to hours. […]

In the case of “wild-type human insulin: Human insulin, A chain SEQ ID NO: 2 and B chain SEQ ID NO: 3”, the “difference in rate of hexamer disassembly (loss of R-state-specific d-d band) in presence versus absence of glucose” value was “No difference was observed” and the “difference in rate of hexamer disassembly (loss of R-state-specific d-d band) in presence versus absence of glucose” value (listed as Wild-type insulin) was “the same rate of loss”.
